For one data set, the system named is Oryctolagus sp. The conditions noted are these: for LD50: acute, dermal.
The test system of data set [1] is Rattus norvegicus. Conditions: for LC50 / LD50: acute; for LC50: Inhalation.
In data set [2] the test system is Rattus norvegicus. The conditions noted are these: Hershberger, oral, gavage.
A further data set has as its system Mus musculus. Conditions: oral.
The subject of data set [3] is Rattus norvegicus. Conditions: oral, diet, Wistar, neurological.
Where [4] appears, read: short-term, duration: 28 days, oral, diet, Sprague-Dawley.
Setting [5] is: duration: 10 days, Wistar, active + Negative + Antiandrogenic + anti-androgenic.
Setting [6] is: developmental, duration: 14 days, gavage, M, NMRI, developmental.
[7] abbreviates: duration: 5 days, Sprague-Dawley, active + Antiandrogenic + anti-androgenic + PPS delayed by 5 days / single dose tested (liver wt?).

Values joined by “and” are separate entries in the source; they are usually repeats but may differ in a detail not shown here. Equal values may be shown once.

Turning to `O=c1nc([O-])n(Cl)c(=O)n1Cl.[Na+]` [Sodium dichloroisocyanurate], in the data set with Oryctolagus sp., the LD50 – broadly, the dose expected to kill half of the subjects tested – is above 2000 mg/kg.
`CCCCCCCCCCCCCOC(=O)CCCCC(=O)OCCCCCCCCCCCCC` [Bis(tridecyl) adipate] had an LC50 in the data set on Rattus norvegicus [1] (Sprague-Dawley) above 3.2 µg/mL. Further, the LD50 was above 16000 mg/kg in the data set on Rattus norvegicus [1] (oral, Sherman Wistar); above 15000 mg/kg in the data set on Rattus norvegicus [1] (oral, gavage, Wistar); above 2000 mg/kg with Oryctolagus sp.; above 5000 mg/kg in the data set with Oryctolagus sp. (semiocclusive, New Zealand). Further, the NOAEL (as a rule, the highest tested level that showed no adverse finding) in the data set with Rattus norvegicus [1] (reproduction developmental, duration: 19 days, dermal, Sprague-Dawley) is 800 mg/kg-day; in the data set on Rattus norvegicus [1] (subchronic, duration: 13 weeks, dermal, Sprague-Dawley), 800 mg/kg-day.
On to `CC(C)CCC(C)Nc1ccc(Nc2ccccc2)cc1` (centres undefined) [N-(5-Methyl-2-hexyl)-N'-phenyl-p-phenylenediamine], for which, in the data set with Rattus norvegicus [1] (setting [4]), the lowest observed adverse effect level (LOAEL) (commonly the lowest tested level that showed an adverse finding) is 750 ppm and the NOAEL was 500 ppm. Also, the LD50 with Oryctolagus sp. (occlusive, New Zealand) is above 5010 mg/kg.
On to `CC(=O)Oc1cccc(Oc2ccc(C(F)(F)F)cc2Cl)c1` [2-Chloro-1-(3-acetoxyphenoxy)-4-(trifluoromethyl)benzene], for which the LC50 in the data set on Rattus norvegicus [1] (Wistar) is above 4.13 µg/mL. Besides, the LD50 in the data set on Rattus norvegicus [1] (oral, Crj:CD) is above 500 mg/kg; with Oryctolagus sp. (occlusive, New Zealand) it was above 200 mg/kg.
Regarding `Clc1ccc(C(c2ccc(Cl)cc2)C(Cl)Cl)cc1` [p,p'-DDD], in the data set with Rattus norvegicus [2] (setting [5]), the LOEL was found to be 200 mg/kg-day and the NOEL was determined as 40 mg/kg-day. Besides, the lowest-observed-adverse-effect level (LOAEL) in the data set on Mus musculus (setting [6]) is 0.5 mg/kg-day.
In the data set with Rattus norvegicus [1] (oral, gavage, Sprague-Dawley), `O=[N+]([O-])c1ccc(Cl)cc1` [1-Chloro-4-nitrobenzene] gave an LD50 of 530 mg/kg. The NOAEL in the data set with Rattus norvegicus [1] (developmental, duration: 14 days, oral, gavage, Sprague-Dawley) was 15 mg/kg-day; in the data set with Rattus norvegicus [1] (reproduction developmental, duration: 14 days, oral, gavage, F, Sprague-Dawley), below 5 mg/kg-day; in the data set with Rattus norvegicus [1] (reproduction developmental, duration: 167 days, oral, gavage, Sprague-Dawley, generation: F0), 0.7 mg/kg-day; in the data set on Rattus norvegicus [1] (reproduction developmental, duration: 167 days, oral, gavage, Sprague-Dawley, generation: F1), 5 mg/kg-day; with Rattus norvegicus [1] (reproduction developmental, duration: 167 days, oral, gavage, Sprague-Dawley, generation: F2) it was 5 mg/kg-day; with Oryctolagus sp. (developmental, duration: 13 hours, oral, gavage, New Zealand) it was 15 mg/kg-day.
As to `CC(C)COP(=S)([S-])OCC(C)C.CC(C)COP(=S)([S-])OCC(C)C.[Zn+2]`, the LD50 was 3600 mg/kg in the data set with Rattus norvegicus [1] (oral, gavage, Wistar) and above 20000 mg/kg in the data set on Oryctolagus sp. (New Zealand).
As for `C=CC(C)CCC=C(C)C` (centres undefined) [Dihydromyrcene], the LD50 was above 5000 mg/kg with Rattus norvegicus [1] (oral, Wistar); above 5000 mg/kg in the data set on Rattus norvegicus [1] (oral, gavage, Wistar); above 5000 mg/kg in the data set on Oryctolagus sp. (New Zealand).
With `ClC(Cl)=C(c1ccc(Cl)cc1)c1ccc(Cl)cc1` [p,p'-DDE], the LOEL in the data set on Rattus norvegicus [2] (setting [7]) is 100 mg/kg-day; with Rattus norvegicus [2] (duration: 7 days, Fischer 344, active + Antiandrogenic + anti-androgenic + PPS delayed by 5 days / single dose tested (liver wt?)), 100 mg/kg-day and 200 mg/kg-day; with Rattus norvegicus [2] (duration: 7 days, Long-Evans, active + Antiandrogenic + anti-androgenic + PPS delayed by 5 days / single dose tested (liver wt?)), 100 mg/kg-day; with Rattus norvegicus [2] (duration: 7 days, Sprague-Dawley, active + Antiandrogenic + anti-androgenic + PPS delayed by 5 days / single dose tested (liver wt?)) it was 100 mg/kg-day and 200 mg/kg-day; with Rattus norvegicus [2] (duration: 10 days, Sprague-Dawley, active + Negative + Antiandrogenic + anti-androgenic + PPS delayed by 5 days / single dose tested (liver wt?)), 100 mg/kg-day. The NOEL with Rattus norvegicus [2] (setting [7]) is 10 mg/kg-day; in the data set with Rattus norvegicus [2] (duration: 10 days, Wistar, active + Antiandrogenic + anti-androgenic + PPS delayed by 5 days / single dose tested (liver wt?)) it was 16 mg/kg-day and 30 mg/kg-day; in the data set with Rattus norvegicus [2] (duration: 10 days, wistar, active + Antiandrogenic + anti-androgenic + PPS delayed by 5 days / single dose tested (liver wt?)) it was 10 mg/kg-day and 16 mg/kg-day and 30 mg/kg-day. In the data set on Mus musculus (setting [6]), the LOAEL stood at 0.5 mg/kg-day.
In the case of `CCCCCCCCCc1cc2ccccc2c(S(=O)(=O)[O-])c1CCCCCCCCC.CCCCCCCCCc1cc2ccccc2c(S(=O)(=O)[O-])c1CCCCCCCCC.[Ca+2]` [Calcium bis(dinonylnaphthalenesulphonate)], the LC50 in the data set with Rattus norvegicus [1] (Wistar) was above 18 µg/mL. In addition, the LD50 in the data set on Rattus norvegicus [1] (oral, gavage, Sprague-Dawley) is above 5000 mg/kg; in the data set with Oryctolagus sp. (New Zealand), above 20000 mg/kg.
For the molecule `Cc1ccc([N+](=O)[O-])cc1C` [1,2-Dimethyl-4-nitrobenzene], the LD50 with Rattus norvegicus [1] (oral, Wistar) was 2640 mg/kg; in the data set with Oryctolagus sp. (occlusive, New Zealand), above 5700 mg/kg.
Consider `CCOP(=O)(OCC)OC(=CCl)c1ccc(Cl)cc1Cl` [Chlorfenvinphos], for which the LOAEL in the data set with Rattus norvegicus [3] (chronic, duration: 104 weeks, M/F) was 0.7 mg/kg-day; in the data set with Rattus norvegicus [3] (short-term, duration: 10 days, F), 2.4 mg/kg-day; in the data set with Mus musculus (subchronic, duration: 3 months, M/F, C57BL/6, immunological), 1.5 mg/kg-day.
For `O=C1OC(=O)C2CCCCC12` (centres undefined) [Hexahydrophthalic anhydride], the LC50 with Rattus norvegicus [1] (Sprague-Dawley) is above 1100 mg/m3. Moreover, the LD50 was 3310 mg/kg in the data set with Rattus norvegicus [1] (oral); ≥ 2700 mg/kg and ≤ 2800 mg/kg in the data set with Rattus norvegicus [1] (oral, Sprague-Dawley); above 2000 mg/kg with Oryctolagus sp. (New Zealand).
With `CC(C)CC(=O)CC(C)CC(C)C` (centres undefined) [2,6,8-Trimethyl-4-nonanone], the LD50 with Rattus norvegicus [1] (oral, gavage) worked out at 8470 mg/kg; in the data set with Oryctolagus sp. (occlusive), 9030 mg/kg. Besides, the no observed adverse effect level (NOAEL) with Rattus norvegicus [1] (reproduction developmental, oral, gavage, CD, generation: F1) was found to be 300 mg/kg-day; in the data set with Rattus norvegicus [1] (reproduction developmental, oral, gavage, F, CD), 100 mg/kg-day.

Values taken from EPA's ToxValDB 9.5.
